Reference: BigSolDB 2.1

CCCCCCCCCCCCCCCCCC
Settings	solubility (mole fraction)
in cyclohexane, 281.45 K	0.214
in cyclohexane, 284.35 K	0.265
in cyclohexane, 287.2 K	0.35
in cyclohexane, 290.95 K	0.445
in cyclohexane, 294.8 K	0.576
in cyclohexane, 297.05 K	0.704
in ethanol, 283.05 K	0.0018
in ethanol, 285.75 K	0.0025
in ethanol, 287.7 K	0.0032
in ethanol, 289.25 K	0.0038
in ethanol, 291 K	0.0047
in ethanol, 292.6 K	0.0058
in ethanol, 294.35 K	0.0072
in ethanol, 296.2 K	0.0093
in ethanol, 297.95 K	0.0122
in ethanol, 299.45 K	0.0162
in n-heptane, 276.9 K	0.124
in n-heptane, 279 K	0.151
in n-heptane, 281.4 K	0.183
in n-heptane, 283.7 K	0.225
in n-heptane, 287.6 K	0.314
in n-heptane, 290.15 K	0.393
in n-heptane, 291.9 K	0.458
in n-heptane, 293.65 K	0.524
in n-heptane, 296.4 K	0.647
in n-heptane, 297.65 K	0.733

CCCCCCCCCCCCCCCCCCC
Settings	solubility (mole fraction)
in cyclohexane, 282.25 K	0.201
in cyclohexane, 283.95 K	0.233
in cyclohexane, 286.65 K	0.29
in cyclohexane, 289.65 K	0.359
in cyclohexane, 292.8 K	0.458
in cyclohexane, 295.65 K	0.553
in cyclohexane, 297 K	0.6
in cyclohexane, 301.75 K	0.75
in ethanol, 282.7 K	0.0011
in ethanol, 284.8 K	0.0014
in ethanol, 286 K	0.0016
in ethanol, 287.4 K	0.0019
in ethanol, 288.7 K	0.0022
in ethanol, 289.95 K	0.0025
in ethanol, 290.95 K	0.003
in ethanol, 292.45 K	0.0035
in ethanol, 293.75 K	0.0041
in ethanol, 295.6 K	0.0051
in ethanol, 297.25 K	0.0062
in ethanol, 300.85 K	0.0083
in ethanol, 303.85 K	0.0115
in n-heptane, 278.25 K	0.129
in n-heptane, 279.5 K	0.145
in n-heptane, 280.95 K	0.164
in n-heptane, 282.45 K	0.19
in n-heptane, 284.25 K	0.22
in n-heptane, 286.55 K	0.256
in n-heptane, 288.7 K	0.314
in n-heptane, 290.95 K	0.393
in n-heptane, 293.7 K	0.478
in n-heptane, 296.95 K	0.611
in n-heptane, 302.3 K	0.786
